Results: patent US8420144B2, “Kokumi-imparting agent, method of using, and compositions containing same” (Ajinomoto Co., Inc., priority 2005, dated 2013)

How the values were obtained:
human CaSR = biological target: T1, human CaSR (Homo sapiens, UniProt P41180); experiment: Calcium receptor (CaSR) activation activity: calcium imaging in HEK 293 cells expressing human CaSR; assay type: cell-based; details: concentration giving 50% of the maximal activity; single values n = 1, others n = 2 or 3
T1 construct: expressed in transfected cells; host or cells: HEK 293 cells, transient transfection of a CMV-promoter expression vector
T1 sequence (P41180 20-1078): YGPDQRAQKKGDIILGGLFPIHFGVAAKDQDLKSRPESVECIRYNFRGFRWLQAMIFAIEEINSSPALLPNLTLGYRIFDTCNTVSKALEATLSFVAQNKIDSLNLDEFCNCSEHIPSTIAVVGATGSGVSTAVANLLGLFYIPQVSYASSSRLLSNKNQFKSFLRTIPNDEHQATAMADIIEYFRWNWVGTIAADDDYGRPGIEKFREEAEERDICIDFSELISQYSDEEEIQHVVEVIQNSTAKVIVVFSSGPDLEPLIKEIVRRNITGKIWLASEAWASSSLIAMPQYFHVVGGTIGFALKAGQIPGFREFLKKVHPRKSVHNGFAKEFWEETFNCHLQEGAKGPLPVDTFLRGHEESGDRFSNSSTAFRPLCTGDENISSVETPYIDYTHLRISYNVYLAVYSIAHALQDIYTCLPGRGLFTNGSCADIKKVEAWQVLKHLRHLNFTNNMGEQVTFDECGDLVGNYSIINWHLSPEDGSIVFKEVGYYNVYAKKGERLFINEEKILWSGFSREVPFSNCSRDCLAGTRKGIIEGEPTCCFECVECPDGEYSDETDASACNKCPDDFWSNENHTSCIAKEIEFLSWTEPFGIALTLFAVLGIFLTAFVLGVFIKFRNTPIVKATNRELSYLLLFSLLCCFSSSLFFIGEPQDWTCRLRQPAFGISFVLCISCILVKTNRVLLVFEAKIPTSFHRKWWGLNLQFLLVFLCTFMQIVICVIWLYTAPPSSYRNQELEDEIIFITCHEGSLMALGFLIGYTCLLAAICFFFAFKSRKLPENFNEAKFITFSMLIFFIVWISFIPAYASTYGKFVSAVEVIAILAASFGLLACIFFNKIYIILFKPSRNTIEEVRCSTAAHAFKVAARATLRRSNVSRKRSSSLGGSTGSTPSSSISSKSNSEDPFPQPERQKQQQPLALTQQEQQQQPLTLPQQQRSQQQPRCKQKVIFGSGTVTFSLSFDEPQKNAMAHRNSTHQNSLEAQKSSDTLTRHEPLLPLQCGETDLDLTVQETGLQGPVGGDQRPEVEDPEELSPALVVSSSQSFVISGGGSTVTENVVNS
Procedure: Calcium receptor (CaSR) activation activity of peptides obtained in Examples 2, 3, and 5-12 were measured as follows. A cDNA of human CaSR obtained in Example 1 of WO2007/055393A1 was inserted into an expression vector for an animal cell having a CMV promoter, and the cDNA in the vector was introduced into HEK 293 cells, which had multiplied to 70% of the maximal cell density, using FuGINE6 (Roche Ltd.). After culturing the cells for 4 to 48 hours, 0.6-1.0×10^5 of cells/well were disseminated into a 96-well plate, subsequently, the cells were cultured for one day, and then stained using Calcium 3 Assay Kit. The presence or absence of a calcium receptor activation activity of each peptide was confirmed by a calcium imaging method using FLEXSTATION (Molecular Devices Inc., instruction manual). Furthermore, the concentration of each peptide giving 50% of the maximal activity (EC50) was calculated using a dose characteristic curve.

[1] = Quantitative sensory evaluation test: imparting kokumi to Japanese clear soup; assay type: in vivo, human; details: n=12, 0 control, 3 intense, 5 extremely intense
Procedure: The intensity of activity for imparting kokumi to clear soup of each peptide having confirmed calcium receptor activation activity was measured by a quantitative sensory evaluation test, performed as follows: Japanese clear soup was prepared by adding 0.5 g/dl of soy sauce and 0.6 g/dl of sodium chloride to bonito kelp stock, obtained by adding 5 g of dried kelp to 3 L of water, heating the water, adding 25 g of dried bonito flakes just before boiling, and then filtering the water containing kelp and bonito flakes. To this clear soup, samples of either γ-Glu-Cys-Gly (glutathione) or γ-Glu-Val-Gly was added to a concentration of 0.0001 to 1 g/dl, and the intensity of the kokumi-imparting activity was measured for each sample. The clear soup with the samples that became acidic after dissolution of the samples with respect to the clear soup without the samples were adjusted with NaOH to pH not lower or higher by 0.2 than pH of the clear soup without the samples before use. Sensory evaluation scores were used to evaluate as follows: 0 points for the control sample, 3 points for intense activity as compared to the control, and 5 points for extremely intense activity as compared to the control, and the test was performed with n=12.

| Structure (SMILES) | EC50 (human CaSR) | Intensity of kokumi: Aftertaste ([1]; 0.0005 g/dl) | Intensity of kokumi: First and middle taste ([1]; 0.0005 g/dl) | Intensity of kokumi: Aftertaste ([1]; 0.001 g/dl) | Intensity of kokumi: First and middle taste ([1]; 0.001 g/dl) | Intensity of kokumi: Aftertaste ([1]; 0.01 g/dl) | Intensity of kokumi: First and middle taste ([1]; 0.01 g/dl) | Intensity of kokumi: Aftertaste ([1]; 0.1 g/dl) | Intensity of kokumi: First and middle taste ([1]; 0.1 g/dl) |
| --- | --- | --- | --- | --- | --- | --- | --- | --- | --- |
| CC(C)[C@H](NC(=O)CC[C@H](N)C(=O)O)C(=O)NCC(=O)O [γ-Glu-Val-Gly] | 23 to 55 nM | 3.0 points | 2.5 points | 4.0 points | 3.5 points | 5.0 points | 5.0 points | 5.0 points | 5.0 points |
| N[C@@H](CCC(=O)N[C@@H](CS)C(=O)NCC(=O)O)C(=O)O [γ-Glu-Cys-Gly, reference compound] | – | – | – | – | – | 2.0 points | 2.0 points | – | – |
